The structures appear in SMILES notation. pIC50: −log10 of the molar value. A value given as a limit tells only on which side of the number the result lay.

Broadly, the pIC50 is −log10 of the IC50, conventionally taken in molar units.

For assay [1], the target named is human catalytic domain HDAC4 protein (Homo sapiens, UniProt P56524, A743G/DEL730-739/DEL742-742). Put plainly: Inhibition of HDAC4 catalytic domain enzymatic activity, Boc-Lys(Tfa)-AMC substrate, fluorescence. Particulars: read-out: Biochemical HDAC-4 IC50. How it is done: Analysis of Inhibition of HDAC4 with Class IIa Histone Deacetylase (HDAC) Inhibitors
The substrate is deacetylated to Boc-Lys-AMC by HDAC4. Cleavage by trypsin results in the release of the fluorophore AMC from the deacetylated substrate. The fluorescence of the sample is directly related to the histone deacetylase activity in the sample.
(§1) Serially Dilute HDAC Inhibitor Compounds.
Stocks of 60 μl aliquots of the 10 mM compound in DMSO are prepared and stored at −20° C. From one stock aliquot of each compound to be tested and the reference compound, a 16-point serial dilution is prepared according to Table 1 using a 125 μl 16-channel Matrix multi-channel pipette (Matrix Technologies Ltd).
2 μl (200×) of each diluted solution and each control (full activity: 100% DMSO alone or full inhibition 1 mM) is stamped into V-bottomed polypropylene 384-well compound plates using either the Bravo (384-well head from Agilent) or 12.5 μl 16-channel Matrix multi-channel pipette (Matrix Technologies Ltd).
Prepare HDAC4 Catalytic Domain Enzyme (0.86 μg/ml).
Prepare 5× (50 NM) Boc-Lys(Tfa)-AMC Substrate.
5× (50 μM) substrate is prepared just prior to the addition to the assay. A 1 mM substrate stock is made by diluting a 100 mM Boc-Lys(Tfa)-AMC in DMSO solution 1:100 by adding it drop-wise to assay buffer (equilibrated to room temperature) while vortexing at slow speed to prevent precipitation. The 5× substrate is prepared by diluting the 1 mM substrate solution 1:20 by adding it drop-wise to assay buffer (equilibrated to room temperature) while vortexing at slow speed to prevent precipitation.
Prepare 3× (30 NM) Developer/Stop Solution.
5 μl of each solution of 1:20 diluted compound from above is transferred to a clear bottomed, black, 384-well assay plate using the Bravo or the Janus (384-well MDT head from Perkin Elmer). Using a 16-channel Matrix multi-channel pipette, 35 μl of the working solution of HDAC4 catalytic domain enzyme (0.86 μg/ml in assay buffer) is transferred to the assay plate. The assay is then started by adding 10 μl of 5× (50 μM) substrate to the assay plates using either the Bravo, Janus or 16-channel Matrix multi-channel pipette. The assay plate is then shaken for two minutes on an orbital shaker at 900 rpm (rotations per minute). Next the plate is incubated for 15 minutes at 37° C. The reaction is stopped by adding 25 μl of 3× (30 μM) developer/stop solution to the assay plates using either the Bravo, Janus or a 16-channel Matrix multi-channel pipette. Assay plates are then shaken for 5 minutes on an orbital shaker at 1200 rpm. Next, the assay plates are incubated at 37° C. for 1 hour in a tissue culture incubator.

Assay [2] deals with cellular histone deacetylase enzymatic activity in Jurkat E6-1 cells. Put plainly: Inhibition of cellular HDAC activity in Jurkat E6-1 cells, Class IIa selective substrate Boc-Lys(Tfa)-AMC. It counts as cell-based. Particulars: Homo sapiens. As to the method: Analysis of Inhibition of Cellular HDAC Activity with Class IIa Histone Deacetylase (HDAC) Inhibitors
After penetration in Jurkat E6-1 cells, the substrate is deacetylated to Boc-Lys-AMC. After cell lysis and cleavage by trypsin, the fluorophore AMC is released from the deacetylated substrate only. The fluoresence of the sample is directly related to the histone deacetylase activity in the sample.
Jurkat E6.1 Cell Culture and Plating.
Jurkat E6.1 cells are cultured according to standard cell culture protocols in Jurkat E6.1 Growth Media (RPMI without phenol red, 10% FBS, 10 mM HEPES, and 1 mM Sodium Pyruvate). Jurkat E6.1 cells are counted using a Coulter Counter and resuspended in Jurkat E6.1 growth media at a concentration of 75,000 cells/35 μl. 35 μl or 75,000 cells is seeded into Greiner microtitre assay plates. The plates are then incubated at 37° C. and 5% CO2 while other assay components are being prepared.
as §1
Stocks of 70 μl aliquots of the 10 mM compound in DMSO are prepared and stored at −20° C. From one stock aliquot of each compound to be tested and the reference compound, a 16-point serial dilution is prepared according to Table 1 using a 125 μl 16-channel Matrix multi-channel pipette.
2 μl (200×) of each diluted solution and each control (full activity: 100% DMSO alone or full inhibition 1 mM) is stamped into V-bottom polypropylene 384-well compound plates using either the Bravo, Janus, or 12.5 μl 16-channel Matrix multi-channel pipette. Each well with the 200× compound solution is diluted 1:20 by the addition of 38 μl Jurkat assay buffer+DMSO (9.5% DMSO, RPMI without phenol red, 0.09% FBS, 9 mM Hepes, and 0.9 mM Sodium Pyruvate equilibrated to room temperature)
Prepare 5× (500 μM) Boc-Lys(Tfa)-AMC Substrate.
5× (500 μM) substrate is prepared just prior to the addition to the assay. The 5× substrate is prepared by diluting a 100 mM Boc-Lys(Tfa)-AMC in DMSO solution 1:200 by adding it drop-wise to Jurkat assay medium (RPMI without phenol red, 0.1% FBS, 10 mM Hepes, and 1 mM Sodium Pyruvate equilibrated to 37° C.) while vortexing at slow speed to prevent precipitation.
10 ml of 3× lysis buffer is prepared with 8.8 ml of 3× stock lysis buffer (50 mM Tris-HCl, pH 8.0, 137 mM NaCl, 2.7 mM KCl, 1 mM MgCl2, 1% Nonidet P40 Substitute equilibrated to room temperature) and 1.2 ml of 3 mg/ml Trypsin equilibrated to room temperature.
5 μl of each solution of 1:20 diluted compound from above is transferred to the Greiner microtitre assay plates with 75,000 cells/well using the Bravo. Cells are then incubated for 2 hours at 37° C. and 5% CO2. The assay is then started by adding 10 μl of 5× (500 μM) substrate to the assay plate using either the Bravo or 16-channel Matrix multi-channel pipette. The cells are then incubated for 3 hours at 37° C. and 5% CO2. Next, 25 μl of 3× lysis buffer is added to each well using either the 125 μl 16 channel pipette or the Bravo. The assay plate is then incubated overnight (15-16 hours) at 37° C. and 5% CO2. The following day, the plates are shaken on an orbital shaker for 1 minute at 900 rpm. Finally the top read fluorescence (Excitation: 355 nm, Emission: 460 nm) is measured using PerkinElmer EnVision.

Chain of human catalytic domain HDAC4 protein (P56524 with tags, fused parts or gaps A743G/DEL730-739/DEL742-742): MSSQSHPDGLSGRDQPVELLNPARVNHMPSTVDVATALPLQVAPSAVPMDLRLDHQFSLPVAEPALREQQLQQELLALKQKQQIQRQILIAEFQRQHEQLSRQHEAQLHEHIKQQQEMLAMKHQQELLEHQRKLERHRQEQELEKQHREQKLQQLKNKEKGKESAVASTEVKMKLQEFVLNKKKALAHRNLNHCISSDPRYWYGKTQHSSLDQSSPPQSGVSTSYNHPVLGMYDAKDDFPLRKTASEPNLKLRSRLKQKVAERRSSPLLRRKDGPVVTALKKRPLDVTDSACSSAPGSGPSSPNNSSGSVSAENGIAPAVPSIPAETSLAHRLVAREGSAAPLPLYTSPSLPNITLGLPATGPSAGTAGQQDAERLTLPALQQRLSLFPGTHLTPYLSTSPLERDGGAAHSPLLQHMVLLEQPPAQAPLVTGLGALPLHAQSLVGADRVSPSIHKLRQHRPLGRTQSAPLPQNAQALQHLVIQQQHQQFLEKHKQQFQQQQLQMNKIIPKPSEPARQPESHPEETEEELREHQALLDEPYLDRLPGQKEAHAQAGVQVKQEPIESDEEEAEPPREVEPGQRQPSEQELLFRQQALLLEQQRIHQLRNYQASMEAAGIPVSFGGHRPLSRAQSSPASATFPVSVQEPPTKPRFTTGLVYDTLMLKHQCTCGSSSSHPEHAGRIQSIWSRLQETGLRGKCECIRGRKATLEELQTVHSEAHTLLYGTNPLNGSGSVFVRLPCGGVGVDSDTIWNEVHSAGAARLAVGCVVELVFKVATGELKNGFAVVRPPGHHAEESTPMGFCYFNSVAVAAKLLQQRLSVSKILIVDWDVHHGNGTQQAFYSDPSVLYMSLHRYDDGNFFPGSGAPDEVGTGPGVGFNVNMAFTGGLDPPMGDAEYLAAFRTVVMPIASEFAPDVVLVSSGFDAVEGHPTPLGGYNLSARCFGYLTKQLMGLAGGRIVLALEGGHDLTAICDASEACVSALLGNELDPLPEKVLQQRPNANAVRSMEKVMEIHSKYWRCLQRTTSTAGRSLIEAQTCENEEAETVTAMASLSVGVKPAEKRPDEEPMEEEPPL

Consider `O=C(NO)[C@@]1(F)[C@H](c2ccccc2)[C@H]1c1ccnc(C2CC2)c1` (racemic) [(1R*,2S*,3S*)-2-(2-Cyclopropylpyridin-4-yl)-1-fluoro-N-hydroxy-3-phenylcyclopropanecarboxamide], for which the pIC50 in assay [1] and in assay [2] was less than 4.30 each time. With `O=C(NO)[C@@]1(F)[C@H](c2ccccc2)[C@H]1c1ccc(-c2cnc(C3CC3)o2)cc1` (racemic) [(1R*,2S*,3S*)-2-(4-(2-Cyclopropyloxazol-5-yl)phenyl)-1-fluoro-N-hydroxy-3-phenylcyclopropanecarboxamide], the pIC50 is 5.33 in assay [1] and 4.55 in assay [2]. For `O=C(NO)[C@@]1(F)[C@H](c2ccccc2)[C@H]1c1cc(Cl)c2c(c1)OCCO2` (racemic) [(1R*,2S*,3S*)-2-(8-Chloro-2,3-dihydrobenzo[b][1,4]dioxin-6-yl)-1-fluoro-N-hydroxy-3-phenylcyclopropanecarboxamide], in that order: 5.19 and 4.40. On to `O=C(NO)[C@]1(F)[C@H](c2ccccc2)[C@H]1c1ccc(-c2cnc(C3CC3)o2)cc1` (racemic) [(1S*,2S*,3S*)-2-(4-(2-Cyclopropyloxazol-5-yl)phenyl)-1-fluoro-N-hydroxy-3-phenylcyclopropanecarboxamide], for which the pIC50 in assay [1] was 7.70; in assay [2] it was 6.51. As for `O=C(NO)[C@]1(F)[C@H](c2ccccc2)[C@H]1c1ccc(Br)cc1` (racemic) [(1S*,2S*,3S*)-2-(4-Bromophenyl)-1-fluoro-N-hydroxy-3-phenylcyclopropanecarboxamide], the figures for the pIC50 in assay [1] and in assay [2] were 7.22 and 6.06, respectively. For `Cc1cnc(-c2ccc([C@H]3[C@H](c4ccccc4)[C@]3(Cl)C(=O)NO)cc2)nc1` [(1R,2R,3R)-1-Chloro-N-hydroxy-2-(4-(5-methylpyrimidin-2-yl)phenyl)-3-phenylcyclopropanecarboxamide], the pIC50 in assay [2] is 4.82. Still for that read-out and setting: the result for `O=C(NO)[C@@]1(F)[C@@H](c2ccccc2)[C@@H]1c1ccc(-c2ncc(F)cn2)cc1` [(1R,2R,3R)-1-Fluoro-2-(4-(5-fluoropyrimidin-2-yl)phenyl)-N-hydroxy-3-phenylcyclopropanecarboxamide] reads 5.35; that for `Cc1cnc(-c2ccc([C@H]3[C@H](c4ccccc4)[C@]3(F)C(=O)NO)cc2)nc1` [(1R,2R,3R)-1-Fluoro-N-hydroxy-2-(4-(5-methylpyrimidin-2-yl)phenyl)-3-phenylcyclopropanecarboxamide], 5.05. Still for that read-out and setting: with `O=C(NO)[C@@]1(F)[C@@H](c2ccccc2)[C@@H]1c1ccc(-c2nccc(C(F)(F)F)n2)cc1` [(1R,2R,3R)-1-Fluoro-N-hydroxy-2-phenyl-3-(4-(4-(trifluoromethyl)pyrimidin-2-yl)phenyl)cyclopropanecarboxamide] the figure was less than 4.30. `O=C(NO)[C@@]1(F)[C@@H](c2ccccc2)[C@@H]1c1ccc(-c2ncc(OC(F)F)cn2)cc1` [(1R,2R,3R)-2-(4-(5-(Difluoromethoxy)pyrimidin-2-yl)phenyl)-1-fluoro-N-hydroxy-3-phenylcyclopropanecarboxamide] gave a negative logarithm of the IC50 (pIC50) in assay [2] of less than 4.30. As to `O=C(NO)[C@]1(F)[C@H](c2ccccc2)[C@H]1c1cnc(-c2ccc(F)cc2)s1` [(1S,2R,3S)-1-Fluoro-2-(2-(4-fluorophenyl)thiazol-5-yl)-N-hydroxy-3-phenylcyclopropanecarboxamide], the pIC50 is 7.22 in assay [1] and 6.16 in assay [2]. With `Cc1cnc(-c2ccc([C@@H]3[C@@H](c4ccccc4)[C@@]3(F)C(=O)NO)cc2)nc1` [(1S,2S,3S)-1-Fluoro-N-hydroxy-2-(4-(5-methylpyrimidin-2-yl)phenyl)-3-phenylcyclopropanecarboxamide], the negative logarithm of the IC50 (pIC50) in assay [2] was 6.92. The same measure, in the same setting: with `O=C(NO)[C@]1(F)[C@H](c2ccccc2)[C@H]1c1ccc(-c2nccc(C(F)(F)F)n2)cc1` [(1S,2S,3S)-1-Fluoro-N-hydroxy-2-phenyl-3-(4-(4-(trifluoromethyl)pyrimidin-2-yl)phenyl)cyclopropanecarboxamide] the figure was 6.59.

`O=C(NO)[C@]1(F)[C@H](c2ccccc2)[C@H]1c1ccc(-c2ncc(OC(F)F)cn2)cc1` [(1S,2S,3S)-2-(4-(5-(Difluoromethoxy)pyrimidin-2-yl)phenyl)-1-fluoro-N-hydroxy-3-phenylcyclopropanecarboxamide] showed a pIC50 in assay [2] of 6.66.

(Values after US9505736B2, “Histone deacetylase inhibitors and compositions and methods of use thereof” (CHDI Foundation, Inc., priority 2012, dated 2016).)
